From PubChem BioAssay (NCI)
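Five concentrations, 48 hours, 96-well plates. GI50: concentration for 50% inhibition of growth. TGI: concentration producing complete growth inhibition.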

Legend:
Assay in all cases: NCI anticancer screen, dose series, 48 h
[1] = tested on: 786-0 renal
[2] = tested on: A498 renal
[3] = tested on: A549 NSCLC
[4] = tested on: ACHN renal
[5] = tested on: BT-549 breast
[6] = tested on: CAKI-1 renal
[7] = tested on: CCRF-CEM leukemia
[8] = tested on: COLO 205 colon
[9] = tested on: DU-145 prostate
[10] = tested on: EKVX NSCLC
[11] = tested on: HCC-2998 colon
[12] = tested on: HCT-116 colon
[13] = tested on: HCT-15 colon
[14] = tested on: HL-60(TB) leukemia
[15] = tested on: HOP-62 NSCLC
[16] = tested on: HOP-92 NSCLC
[17] = tested on: HS 578T breast
[18] = tested on: HT29 colon
[19] = tested on: IGROV1 ovarian
[20] = tested on: K-562 leukemia
[21] = tested on: KM12 colon
[22] = tested on: LOX IMVI melanoma
[23] = tested on: M14 melanoma
[24] = tested on: MALME-3M melanoma
[25] = tested on: MCF7 breast
[26] = tested on: MDA-MB-231 breast
[27] = tested on: MDA-MB-435
[28] = tested on: MOLT-4 leukemia
[29] = tested on: NCI-H226 lung
[30] = tested on: NCI-H23 lung
[31] = tested on: NCI-H460 lung
[32] = tested on: NCI-H522 lung
[33] = tested on: NCI/ADR-RES ovarian
[34] = tested on: OVCAR-3 ovarian
[35] = tested on: OVCAR-4 ovarian
[36] = tested on: OVCAR-5 ovarian
[37] = tested on: OVCAR-8 ovarian
[38] = tested on: PC-3 prostate
[39] = tested on: RPMI-8226 leukemia
[40] = tested on: RXF 393 renal
[41] = tested on: SF-268 CNS
[42] = tested on: SF-295 CNS
[43] = tested on: SF-539 CNS
[44] = tested on: SK-MEL-2 melanoma
[45] = tested on: SK-MEL-28 melanoma
[46] = tested on: SK-MEL-5 melanoma
[47] = tested on: SK-OV-3 ovarian
[48] = tested on: SN12C renal
[49] = tested on: SNB-19 CNS
[50] = tested on: SNB-75 CNS
[51] = tested on: SR leukemia
[52] = tested on: SW-620 colon
[53] = tested on: T-47D breast
[54] = tested on: TK-10 renal
[55] = tested on: U251 CNS
[56] = tested on: UACC-257 melanoma
[57] = tested on: UACC-62 melanoma
[58] = tested on: UO-31 renal

Structure (SMILES): O=S(=O)(Nc1ccc(Cl)cc1)c1ccc(-c2cnc(C3CC3)o2)cc1
- GI50 [1]: 1.67 µM
- TGI [1]: 20.2 µM
- GI50 [2]: 0.168 µM
- TGI [2]: 0.732 µM
- GI50 [3]: 1.49 µM
- TGI [3]: 22.3 µM
- GI50 [4]: 1.25 µM
- TGI [4]: 18.1 µM
- GI50 [5]: 0.637 µM
- TGI [5]: 21.4 µM
- GI50 [6]: 0.586 µM
- TGI [6]: 16.5 µM
- GI50 [7]: 0.564 µM
- TGI [7]: 19.9 µM
- GI50 [8]: 1.27 µM
- TGI [8]: 10 µM
- GI50 [9]: 2.06 µM
- TGI [9]: 15.3 µM
- GI50 [10]: 2.13 µM
- TGI [10]: 18.8 µM
- GI50 [11]: 2.02 µM
- TGI [11]: 15.3 µM
- GI50 [12]: 0.413 µM
- TGI [12]: 15.9 µM
- GI50 [13]: 0.368 µM
- TGI [13]: 15.1 µM
- GI50 [14]: 0.388 µM
- TGI [14]: 8.58 µM
- GI50 [15]: 0.791 µM
- TGI [15]: 18.6 µM
- GI50 [16]: 1.81 µM
- TGI [16]: 18.1 µM
- GI50 [17]: 0.372 µM
- TGI [17]: 6.86 µM
- GI50 [18]: 0.414 µM
- TGI [18]: 14.4 µM
- GI50 [19]: 0.637 µM
- TGI [19]: 15.2 µM
- GI50 [20]: 0.353 µM
- TGI [20]: > 75 µM
- GI50 [21]: 0.431 µM
- TGI [21]: 16.2 µM
- GI50 [22]: 0.595 µM
- TGI [22]: 18.6 µM
- GI50 [23]: 0.406 µM
- TGI [23]: 16.9 µM
- GI50 [24]: 0.743 µM
- TGI [24]: 20.3 µM
- GI50 [25]: 0.383 µM
- TGI [25]: 15 µM
- GI50 [26]: 1.67 µM
- TGI [26]: 15.1 µM
- GI50 [27]: 0.15 µM
- TGI [27]: 0.511 µM
- GI50 [28]: 0.786 µM
- TGI [28]: 41.3 µM
- GI50 [29]: 4.86 µM
- TGI [29]: 23.1 µM
- GI50 [30]: 2.28 µM
- TGI [30]: 16.4 µM
- GI50 [31]: 0.395 µM
- TGI [31]: 7.28 µM
- GI50 [32]: 0.367 µM
- TGI [32]: 11.1 µM
- GI50 [33]: 0.41 µM
- TGI [33]: 8.94 µM
- GI50 [34]: 0.372 µM
- TGI [34]: 3.73 µM
- GI50 [35]: 2.64 µM
- TGI [35]: 17.9 µM
- GI50 [36]: 3.69 µM
- TGI [36]: 17.9 µM
- GI50 [37]: 2.54 µM
- TGI [37]: 22.4 µM
- GI50 [38]: 1 µM
- TGI [38]: 15.5 µM
- GI50 [39]: 1.06 µM
- TGI [39]: 22.7 µM
- GI50 [40]: 0.683 µM
- TGI [40]: 4.98 µM
- GI50 [41]: 1.85 µM
- TGI [41]: 23 µM
- GI50 [42]: 0.425 µM
- TGI [42]: 12.5 µM
- GI50 [43]: 0.513 µM
- TGI [43]: 3.43 µM
- GI50 [44]: 0.766 µM
- TGI [44]: 21.2 µM
- GI50 [45]: 5.72 µM
- TGI [45]: 21.9 µM
- GI50 [46]: 0.768 µM
- TGI [46]: 12.8 µM
- GI50 [47]: 2.07 µM
- TGI [47]: 15.6 µM
- GI50 [48]: 1.09 µM
- TGI [48]: 19.5 µM
- GI50 [49]: 0.847 µM
- TGI [49]: 18.2 µM
- GI50 [50]: 0.191 µM
- TGI [50]: 1.54 µM
- GI50 [51]: 0.21 µM
- TGI [51]: 28.5 µM
- GI50 [52]: 0.378 µM
- TGI [52]: 14 µM
- GI50 [53]: 0.86 µM
- TGI [53]: 17.4 µM
- GI50 [54]: 6.49 µM
- TGI [54]: 21.9 µM
- GI50 [55]: 0.659 µM
- TGI [55]: 17.6 µM
- GI50 [56]: 8.36 µM
- TGI [56]: 28.8 µM
- GI50 [57]: 0.584 µM
- TGI [57]: 13.7 µM
- GI50 [58]: 1.14 µM
- TGI [58]: 15.5 µM
